Experimental data taken from article PMC11395096, “Study of Pentacyclic Triterpenes from Lyophilised Aguaje: Anti-Inflammatory and Antioxidant Properties” (International Journal of Molecular Sciences, 2024).
Starred links: 1 amine or outer side, 2 acyl side, 3 side chain; linkers in the order of their positions; H or OH if unused. Positions of bridges follow the written chain, without caps; N, C: chain ends. Non-standard residues stand in square brackets, D forms with d. Residues, ends and D or L forms follow the SMILES beside them. Chains are numbered I, II in the order given. Actinocin(9to1) = Cc1c2oc3c(C)ccc(C(=O)[*:1])c3nc-2c(C(=O)[*:2])c(N)c1=O; NMeV = CN[C@H](C(=O)O)C(C)C; Sar = CNCC(=O)O

Tests used:
[1] = NR (neutral red) viability assay, IC-21 cells; type: cell-based, Mus musculus; conditions: mouse, IC-21, 72 h
Text: (§1) The IC-21 (Mus musculus macrophage cells, TIB-186) and RAW 264.7 (Mus musculus macrophage cells, TIB-71) cell lines used in this study were obtained from the American Type Culture Collection (ATCC, Manassas, VA, USA). The selection of IC-21 and RAW 264.7 cell lines for studies on inflammation and antioxidant activity is based on two main reasons: the cell type and their origin. Firstly, both IC-21 and RAW 264.7 cell lines are macrophages, which play a crucial role in the immune system, being essential for the inflammatory response and regulation of oxidative stress. These cells have the capacity to produce pro-inflammatory cytokines, express transcription factors such as NF-κB, and generate NO, making them ideal models to understand inflammatory mechanisms. Moreover, macrophages are involved in the activation of Nrf2, a transcription factor critical for the antioxidant response, allowing these cell lines to enable a comprehensive assessment of antioxidant activity within an inflammatory context.
(§2) Cultivated in a Roswell Park Memorial Institute (RPMI) 1640 medium (RPMI 1640 Sigma-Aldrich, CAS No. R7755, St. Louis, MO, USA) supplemented with 2 mM L-glutamine (≥99% Sigma-Aldrich, CAS No. 56-85-9, St. Louis, MO, USA), 10% foetal bovine serum (FBS Sigma-Aldrich, CAS No. TMS-016, St. Louis, MO, USA), and 10,000 units of penicillin and 10 mg streptomycin mL^−1 (Sigma-Aldrich, CAS No. P4333, St. Louis, MO, USA) in culture flasks, the cells were maintained in an incubator under normoxic conditions (20–21% O2) and a humidified atmosphere (5% CO2, at 37 °C).
(§3) Stock solutions of the samples (extracts and compounds) were prepared at a concentration of 1 mM using dimethyl sulfoxide (DMSO ≥ 99.9% Sigma-Aldrich, CAS No. 67-68-5, St. Louis, MO, USA) as the solvent. Dilutions from these stock solutions were then made to achieve concentrations between 100 and 0.20 μg mL^−1 or μM in the culture medium, which contained 0.5% DMSO. A control group consisting only of the culture medium with 0.5% DMSO was also included to determine its potential cytotoxicity.
(§4) The 50% cytotoxic concentration (CC50), 50% inhibitory concentration (IC50), and half-maximal effective concentration (EC50) values were calculated using the sigmoidal dose–response function. All experiments were conducted in triplicate, and the data obtained were expressed as the mean and standard deviation. A two-way analysis of variance (ANOVA) combined with Dunnett’s multiple comparisons test (p < 0.001) was performed for the cytotoxicity, NF-κB inhibition, NO inhibition and Nrf2 activation assays, while a one-way ordinary ANOVA combined with Dunnett’s multiple comparisons test (p < 0.001) was conducted for the SOD assay. All statistical analyses were performed using GraphPad Prism version 10.0.0 (La Jolla, CA, USA, www.graphpad.com, accessed on 28 August 2024).
(§5) Cell viability was evaluated using a colorimetric assay in 96-well plates, employing 3-amino-7-dimethylamino-2-methylphenazine hydrochloride salt reagent (NR, Sigma-Aldrich, CAS No. 553-24-2, St. Louis, MO, USA). ACTD (≥95% Sigma-Aldrich, CAS No. 50-76-0, St. Louis, MO, USA) was used as a positive control, with a CC50 value of 0.01 μg mL^−1 for the extracts, or 0.008 μM for the compounds. The IC-21 and RAW 264.7 cell lines were cultured in 96-well plates at 37 °C with 5% CO2 until >90% confluency was achieved (1 × 10^4 cells per well). Subsequently, the cultures were treated with sample dilutions (100–0.20 μg mL^−1 or μM) for 72 h at 37 °C with 5% CO2 in phenol red-free RPMI. The supernatant was then discarded, and the cells were washed with phosphate-buffered saline (PBS) before being incubated with […] NR (50 μg mL^−1; 173 μM) for 3 h at 37 °C with 5% CO2. NR labelling was performed after DMSO treatment. […]

[2] = NR (neutral red) viability assay, RAW 264.7 cells; type: cell-based, Mus musculus; conditions: mouse, RAW 264.7, 72 h
Text: as §1, §2, §3, §4, §5

[3] = NR viability assay, value not assigned to one cell line; type: cell-based, Mus musculus; conditions: mouse
Protocol: (§6) Cell viability was evaluated using a colorimetric assay in 96-well plates, employing 3-amino-7-dimethylamino-2-methylphenazine hydrochloride salt reagent (NR, Sigma-Aldrich, CAS No. 553-24-2, St. Louis, MO, USA). ACTD (≥95% Sigma-Aldrich, CAS No. 50-76-0, St. Louis, MO, USA) was used as a positive control, with a CC50 value of 0.01 μg mL^−1 for the extracts, or 0.008 μM for the compounds. The IC-21 and RAW 264.7 cell lines were cultured in 96-well plates at 37 °C with 5% CO2 until >90% confluency was achieved (1 × 10^4 cells per well). Subsequently, the cultures were treated with sample dilutions (100–0.20 μg mL^−1 or μM) for 72 h at 37 °C with 5% CO2 in phenol red-free RPMI. The supernatant was then discarded, and the cells were washed with phosphate-buffered saline (PBS) before being incubated with […] NR (50 μg mL^−1; 173 μM) for 3 h at 37 °C with 5% CO2. NR labelling was performed after DMSO treatment. After incubation, the labelled sample dilutions were rapidly washed with a fixative solution composed of 1% calcium chloride (CaCl2 Sigma-Aldrich, CAS No. 10043-52-4, St. Louis, MO, USA) and 0.5% formaldehyde solution (≥36.0% in H2O Sigma-Aldrich, CAS No. 50-00-0, St. Louis, MO, USA), then diluted with 100 μL of the NR extraction solution. Finally, the plates were read at 540 nm using a microplate reader (Anthos 2020, version 2.0.5, Biochrom Ltd., Cambridge, UK).

[4] = system: IC-21 and RAW 264.7 cell lines; test: as above; type: cell-based, Mus musculus; conditions: across IC-21 and RAW 264.7 / cell line not given, compounds series
Protocol: as §6

Nrf2 = conditions: cited from earlier work

| Compound | CC50 at 72 h ([1]; compounds series) [nM] | CC50 at 72 h ([1]; extracts series) [µg/mL] | CC50 at 72 h ([2]; compounds series) [nM] | CC50 at 72 h ([2]; extracts series) [µg/mL] | CC50 at 72 h ([3]; across IC-21 and RAW 264.7 / cell line not given, compounds series) [nM] | CC50 at 72 h ([3]; cell line not stated, extracts series) [µg/mL] | CC50 [4] [nM] | concentration activating the Nrf2 signalling pathway (Nrf2) [µM] |
| --- | --- | --- | --- | --- | --- | --- | --- | --- |
| Cc1c2oc3c(C)ccc(C(=O)N[C@@H]4C(=O)N[C@H](C(C)C)C(=O)N5CCC[C@H]5C(=O)N(C)CC(=O)N(C)[C@@H](C(C)C)C(=O)O[C@@H]4C)c3nc-2c(C(=O)N[C@@H]2C(=O)N[C@H](C(C)C)C(=O)N3CCC[C@H]3C(=O)N(C)CC(=O)N(C)[C@@H](C(C)C)C(=O)O[C@@H]2C)c(N)c1=O [ACTD, actinomycin D, reference compound] (I: T[dV]P[Sar][NMeV] / II: T[dV]P[Sar][NMeV]; ester I:1-I:C, II:1-II:C; linker I:N-II:N via Actinocin(9to1)) | 8.5 | 0.0143 | 8.8 | 0.0193 | 8.5 to 8.8 | 0.01 | 8 |  |
| C[S+]([O-])CCCCN=C=S (centres unmarked) [sulforaphane] |  |  |  |  |  |  |  | 5 to 20 |
